In PMC5762315, “Inhibition of polo-like kinase 4 (PLK4): a new therapeutic option for rhabdoid tumors and pediatric medulloblastoma” (Oncotarget, 2017):
“And” between values parts separate entries of the source, which are not always exact repeats. Identical values can stand only once.

Experiments:
RT and MB cell lines = assay: Clonogenic recovery assay; type: cell-based, human; settings: 6 days 100nM, then 12 days 0.1% DMSO
Description: For each cell line, 200 cells were seeded into 6-well tissue culture plates. […] On the 7th day, cell were washed with 1X PBS twice and then incubated with 0.1% DMSO for an additional 12 days. […] The number of colonies was counted. All experiments were performed in triplicates.

various kinases [1] = target: various kinases (Homo sapiens, UniProt Q9NYL2); assay: LanthaScreen Eu Kinase Binding Assay, panel of 486 biochemical kinase assays; settings: kinase ZAK; LanthaScreen Binding
Chain of various kinases (Homo sapiens, UniProt Q9NYL2) (Q9NYL2 whole entry): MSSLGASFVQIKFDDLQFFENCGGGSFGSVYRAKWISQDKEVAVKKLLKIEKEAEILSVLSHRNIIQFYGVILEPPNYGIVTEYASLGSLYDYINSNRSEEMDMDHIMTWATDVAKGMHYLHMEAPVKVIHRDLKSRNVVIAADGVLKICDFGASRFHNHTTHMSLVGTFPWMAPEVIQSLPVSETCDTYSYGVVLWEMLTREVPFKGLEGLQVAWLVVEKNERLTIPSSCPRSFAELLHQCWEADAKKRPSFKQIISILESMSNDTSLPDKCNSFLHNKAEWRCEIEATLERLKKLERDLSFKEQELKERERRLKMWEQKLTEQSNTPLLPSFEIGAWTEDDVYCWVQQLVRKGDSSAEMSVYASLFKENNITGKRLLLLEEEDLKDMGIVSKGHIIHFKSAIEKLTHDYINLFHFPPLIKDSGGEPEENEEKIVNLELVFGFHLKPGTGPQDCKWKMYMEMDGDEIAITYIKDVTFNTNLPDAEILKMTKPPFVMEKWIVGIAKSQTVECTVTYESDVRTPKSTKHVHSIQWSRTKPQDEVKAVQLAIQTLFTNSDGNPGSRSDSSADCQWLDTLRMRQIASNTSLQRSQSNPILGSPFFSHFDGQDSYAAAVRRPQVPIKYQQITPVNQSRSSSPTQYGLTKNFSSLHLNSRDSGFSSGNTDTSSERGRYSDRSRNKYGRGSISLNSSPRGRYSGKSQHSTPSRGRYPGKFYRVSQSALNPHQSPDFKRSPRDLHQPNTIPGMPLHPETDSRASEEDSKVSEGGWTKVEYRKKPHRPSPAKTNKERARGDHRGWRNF

various kinases [2] = target: various kinases (Homo sapiens, UniProt P07949, V804M); assay: as above; settings: kinase RET V804M; LanthaScreen Binding
Chain of various kinases (Homo sapiens, UniProt P07949, V804M) (P07949 29-1114 V804M): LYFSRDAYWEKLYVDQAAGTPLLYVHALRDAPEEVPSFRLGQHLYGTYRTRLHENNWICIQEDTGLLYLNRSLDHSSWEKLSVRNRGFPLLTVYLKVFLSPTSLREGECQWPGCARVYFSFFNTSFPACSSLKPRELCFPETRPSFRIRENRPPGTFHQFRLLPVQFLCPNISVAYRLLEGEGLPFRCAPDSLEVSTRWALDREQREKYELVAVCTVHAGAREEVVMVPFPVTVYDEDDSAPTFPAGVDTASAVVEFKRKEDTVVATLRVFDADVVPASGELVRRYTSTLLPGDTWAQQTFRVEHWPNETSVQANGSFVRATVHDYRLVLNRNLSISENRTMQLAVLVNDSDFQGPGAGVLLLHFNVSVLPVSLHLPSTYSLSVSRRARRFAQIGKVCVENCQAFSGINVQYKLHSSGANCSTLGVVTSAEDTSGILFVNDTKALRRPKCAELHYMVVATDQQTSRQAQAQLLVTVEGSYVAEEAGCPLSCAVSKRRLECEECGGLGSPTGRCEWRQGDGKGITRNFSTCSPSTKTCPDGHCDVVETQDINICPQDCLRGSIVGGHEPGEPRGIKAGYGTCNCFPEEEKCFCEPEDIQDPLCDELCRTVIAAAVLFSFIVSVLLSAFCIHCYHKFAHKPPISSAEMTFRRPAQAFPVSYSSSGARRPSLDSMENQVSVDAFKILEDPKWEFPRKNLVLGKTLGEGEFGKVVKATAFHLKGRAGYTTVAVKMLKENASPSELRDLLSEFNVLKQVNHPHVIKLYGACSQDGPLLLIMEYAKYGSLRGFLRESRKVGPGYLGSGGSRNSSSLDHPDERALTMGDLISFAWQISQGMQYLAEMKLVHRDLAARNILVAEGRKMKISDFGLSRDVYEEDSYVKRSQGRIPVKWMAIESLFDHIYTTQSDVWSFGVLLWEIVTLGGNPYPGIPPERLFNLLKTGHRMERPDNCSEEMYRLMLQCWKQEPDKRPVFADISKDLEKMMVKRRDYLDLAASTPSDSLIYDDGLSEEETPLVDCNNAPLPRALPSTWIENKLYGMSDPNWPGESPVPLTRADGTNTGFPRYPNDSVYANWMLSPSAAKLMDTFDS

various kinases [3] = target: various kinases (Homo sapiens, UniProt Q16513); assay: as above; settings: kinase PKN2 (PRK2); LanthaScreen Binding
Chain of various kinases (Homo sapiens, UniProt Q16513) (Q16513 whole entry): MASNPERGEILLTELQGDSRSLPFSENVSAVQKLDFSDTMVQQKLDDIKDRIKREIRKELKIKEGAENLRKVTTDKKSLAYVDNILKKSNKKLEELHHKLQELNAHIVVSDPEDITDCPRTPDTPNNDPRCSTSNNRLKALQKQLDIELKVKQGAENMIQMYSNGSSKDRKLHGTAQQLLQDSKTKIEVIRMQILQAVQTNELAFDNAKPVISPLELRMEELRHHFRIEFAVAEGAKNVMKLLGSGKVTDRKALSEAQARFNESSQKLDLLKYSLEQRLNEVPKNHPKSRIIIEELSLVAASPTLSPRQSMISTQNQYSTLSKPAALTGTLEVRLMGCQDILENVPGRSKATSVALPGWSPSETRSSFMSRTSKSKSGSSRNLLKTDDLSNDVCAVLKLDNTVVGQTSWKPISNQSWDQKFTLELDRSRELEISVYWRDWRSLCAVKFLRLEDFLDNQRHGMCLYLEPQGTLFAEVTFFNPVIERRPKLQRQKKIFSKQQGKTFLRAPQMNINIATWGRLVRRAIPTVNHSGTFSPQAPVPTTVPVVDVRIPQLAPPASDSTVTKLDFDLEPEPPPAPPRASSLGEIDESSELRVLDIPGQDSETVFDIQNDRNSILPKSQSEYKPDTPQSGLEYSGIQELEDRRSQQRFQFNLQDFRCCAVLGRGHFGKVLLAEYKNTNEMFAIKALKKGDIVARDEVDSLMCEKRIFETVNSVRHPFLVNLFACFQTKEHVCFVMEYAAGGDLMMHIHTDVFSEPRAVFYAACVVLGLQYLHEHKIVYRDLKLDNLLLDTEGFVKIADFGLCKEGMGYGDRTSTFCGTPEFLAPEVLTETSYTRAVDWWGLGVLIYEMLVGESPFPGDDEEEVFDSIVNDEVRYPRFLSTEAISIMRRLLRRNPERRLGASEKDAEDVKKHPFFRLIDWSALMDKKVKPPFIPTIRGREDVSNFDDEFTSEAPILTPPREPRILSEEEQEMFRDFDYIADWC

various kinases [4] = target: various kinases (Homo sapiens, UniProt Q9HAZ1); assay: as above; settings: CLK4
various kinases [5] = target: various kinases (Homo sapiens, UniProt P36894); assay: as above; settings: BMPR1A (ALK3)
various kinases [6] = target: T1, various kinases (Homo sapiens, UniProt Q99640); assay: as above; settings: kinase PKMYT1; LanthaScreen Binding
T1 sequence (Q99640 1-499): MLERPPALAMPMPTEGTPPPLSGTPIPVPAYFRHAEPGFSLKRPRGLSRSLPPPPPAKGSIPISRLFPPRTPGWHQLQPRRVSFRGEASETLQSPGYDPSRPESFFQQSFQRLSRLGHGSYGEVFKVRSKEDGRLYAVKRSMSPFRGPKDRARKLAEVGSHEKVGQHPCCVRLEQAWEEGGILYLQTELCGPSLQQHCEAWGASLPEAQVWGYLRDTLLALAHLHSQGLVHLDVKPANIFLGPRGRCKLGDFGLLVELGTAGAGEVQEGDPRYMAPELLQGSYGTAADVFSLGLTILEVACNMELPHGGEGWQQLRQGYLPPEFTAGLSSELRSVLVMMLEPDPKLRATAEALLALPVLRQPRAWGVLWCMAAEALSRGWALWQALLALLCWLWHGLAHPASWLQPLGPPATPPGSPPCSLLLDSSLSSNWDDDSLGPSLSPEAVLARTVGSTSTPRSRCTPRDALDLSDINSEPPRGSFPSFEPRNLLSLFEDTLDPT

various kinases [7] = target: various kinases (Homo sapiens, UniProt Q9UKE5); assay: as above; settings: kinase TNIK; LanthaScreen Binding
Chain of various kinases (Homo sapiens, UniProt Q9UKE5) (Q9UKE5 whole entry): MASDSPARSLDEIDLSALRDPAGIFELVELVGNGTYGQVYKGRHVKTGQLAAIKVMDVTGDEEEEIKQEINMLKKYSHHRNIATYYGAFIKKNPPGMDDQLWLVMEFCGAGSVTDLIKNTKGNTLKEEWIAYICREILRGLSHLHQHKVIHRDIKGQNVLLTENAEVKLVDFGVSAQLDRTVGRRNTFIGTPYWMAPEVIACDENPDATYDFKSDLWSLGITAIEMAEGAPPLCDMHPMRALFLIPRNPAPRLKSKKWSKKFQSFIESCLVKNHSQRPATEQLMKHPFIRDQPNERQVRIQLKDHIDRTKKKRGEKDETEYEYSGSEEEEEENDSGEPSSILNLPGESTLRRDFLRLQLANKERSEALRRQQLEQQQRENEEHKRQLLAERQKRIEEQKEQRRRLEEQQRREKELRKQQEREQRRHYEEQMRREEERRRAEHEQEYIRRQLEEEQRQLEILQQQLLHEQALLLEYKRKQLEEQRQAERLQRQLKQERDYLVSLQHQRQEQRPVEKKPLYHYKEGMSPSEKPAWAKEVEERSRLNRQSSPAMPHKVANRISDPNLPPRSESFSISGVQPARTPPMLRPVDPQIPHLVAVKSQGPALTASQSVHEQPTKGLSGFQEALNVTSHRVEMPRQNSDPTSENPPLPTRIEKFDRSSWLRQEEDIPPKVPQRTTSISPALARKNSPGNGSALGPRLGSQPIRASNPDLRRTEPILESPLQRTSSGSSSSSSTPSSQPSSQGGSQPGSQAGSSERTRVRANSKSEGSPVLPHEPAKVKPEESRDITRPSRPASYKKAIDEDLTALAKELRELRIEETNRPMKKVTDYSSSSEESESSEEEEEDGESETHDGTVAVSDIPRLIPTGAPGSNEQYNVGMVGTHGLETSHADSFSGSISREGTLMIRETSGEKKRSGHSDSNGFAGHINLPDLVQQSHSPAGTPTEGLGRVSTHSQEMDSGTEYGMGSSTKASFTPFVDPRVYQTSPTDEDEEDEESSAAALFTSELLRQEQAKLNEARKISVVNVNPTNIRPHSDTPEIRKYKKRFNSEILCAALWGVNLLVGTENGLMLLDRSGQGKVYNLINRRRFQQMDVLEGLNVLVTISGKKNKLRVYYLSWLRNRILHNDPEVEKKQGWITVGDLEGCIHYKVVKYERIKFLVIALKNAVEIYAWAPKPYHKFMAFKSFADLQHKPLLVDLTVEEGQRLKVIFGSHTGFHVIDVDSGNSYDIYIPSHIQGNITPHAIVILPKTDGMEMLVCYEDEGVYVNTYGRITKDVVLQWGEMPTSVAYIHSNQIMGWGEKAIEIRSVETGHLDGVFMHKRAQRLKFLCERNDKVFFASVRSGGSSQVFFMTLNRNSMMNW

various kinases [8] = target: T2, various kinases (Homo sapiens, UniProt O94768); assay: as above; settings: kinase STK17B (DRAK2); LanthaScreen Binding
T2 sequence (O94768 1-372): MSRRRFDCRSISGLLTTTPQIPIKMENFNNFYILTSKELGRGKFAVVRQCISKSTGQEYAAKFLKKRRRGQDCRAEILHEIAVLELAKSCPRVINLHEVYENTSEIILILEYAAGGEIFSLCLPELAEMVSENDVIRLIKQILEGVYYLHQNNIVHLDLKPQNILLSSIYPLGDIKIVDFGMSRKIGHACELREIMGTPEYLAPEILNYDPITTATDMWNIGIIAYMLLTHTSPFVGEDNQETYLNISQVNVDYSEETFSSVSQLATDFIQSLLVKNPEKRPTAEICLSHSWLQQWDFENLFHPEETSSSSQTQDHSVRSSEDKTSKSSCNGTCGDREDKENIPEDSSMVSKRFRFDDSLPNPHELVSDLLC

various kinases [9] = target: various kinases (Homo sapiens, UniProt Q9BYT3); assay: as above; settings: kinase STK33; LanthaScreen Binding
Chain of various kinases (Homo sapiens, UniProt Q9BYT3) (Q9BYT3 whole entry): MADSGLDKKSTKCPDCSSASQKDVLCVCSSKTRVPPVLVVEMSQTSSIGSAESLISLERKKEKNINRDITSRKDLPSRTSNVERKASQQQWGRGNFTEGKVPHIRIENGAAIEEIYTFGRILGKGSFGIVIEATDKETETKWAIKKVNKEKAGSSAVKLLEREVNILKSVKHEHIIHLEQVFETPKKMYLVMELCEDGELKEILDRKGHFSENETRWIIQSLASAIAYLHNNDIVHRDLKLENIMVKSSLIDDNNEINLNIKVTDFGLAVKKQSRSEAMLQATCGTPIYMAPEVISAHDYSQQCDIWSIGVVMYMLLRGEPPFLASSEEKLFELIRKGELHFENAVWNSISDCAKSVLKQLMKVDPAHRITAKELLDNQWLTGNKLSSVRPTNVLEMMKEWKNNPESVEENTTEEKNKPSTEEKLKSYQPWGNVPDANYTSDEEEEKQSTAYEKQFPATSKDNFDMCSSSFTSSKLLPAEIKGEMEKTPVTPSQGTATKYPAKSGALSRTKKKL

various kinases [10] = target: various kinases (Homo sapiens, UniProt Q9UPZ9); assay: as above; settings: ICK
various kinases [11] = target: various kinases (Homo sapiens, UniProt Q9Y2U5); assay: as above; settings: MAP3K2 (MEKK2)
various kinases [12] = target: T3, various kinases (Homo sapiens, UniProt P36897); assay: as above; settings: kinase TGFBR1 (ALK5); LanthaScreen Binding
T3 sequence (P36897 34-503): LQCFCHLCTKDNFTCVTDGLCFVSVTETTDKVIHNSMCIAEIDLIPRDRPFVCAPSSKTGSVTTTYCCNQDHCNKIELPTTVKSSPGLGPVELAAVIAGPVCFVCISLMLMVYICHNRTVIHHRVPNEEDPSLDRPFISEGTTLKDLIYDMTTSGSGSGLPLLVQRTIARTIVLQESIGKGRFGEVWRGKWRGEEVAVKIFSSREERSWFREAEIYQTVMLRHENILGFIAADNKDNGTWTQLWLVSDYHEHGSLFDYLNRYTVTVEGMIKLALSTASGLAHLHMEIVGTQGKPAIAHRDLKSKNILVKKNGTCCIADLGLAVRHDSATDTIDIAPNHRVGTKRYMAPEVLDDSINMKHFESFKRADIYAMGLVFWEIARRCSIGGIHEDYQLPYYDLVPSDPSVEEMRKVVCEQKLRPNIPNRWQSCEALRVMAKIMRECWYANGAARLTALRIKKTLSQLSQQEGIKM

various kinases [13] = target: various kinases (Homo sapiens, UniProt O14936); assay: as above; settings: CASK

With `COc1ccc2c(c1)[C@]1(C[C@H]1c1ccc3c(/C=C/c4ccc(CN5C[C@@H](C)O[C@@H](C)C5)cc4)n[nH]c3c1)C(=O)N2` [CFI-400945] the clonogenic recovery (RT and MB cell lines) was “none of the cell lines recovered their ability to generate colonies”, the “% Inhibition Average” value (various kinases [1]) was -1% and the “% Inhibition Duplicate #1” value (various kinases [1]) was -1%. The “% Inhibition Duplicate #2” value (various kinases [1]) was -1%, the “% Inhibition Average” value (various kinases [2]) was 34% and the “% Inhibition Duplicate #1” value (various kinases [2]) was 29%. The “% Inhibition Duplicate #2” value (various kinases [2]) was 39%, the “% Inhibition Average” value (various kinases [3]) was 50% and the “% Inhibition Duplicate #1” value (various kinases [3]) was 48%. The “% Inhibition Duplicate #2” value (various kinases [3]) was 51%, the “% Inhibition” value (various kinases [4]) was 1% and -2% and the “% Inhibition” value (various kinases [5]) was -4% and 3%. For the same molecule, the “% Inhibition Average” value (various kinases [6]) was 31%, the “% Inhibition Duplicate #1” value (various kinases [6]) was 31% and the “% Inhibition Duplicate #2” value (various kinases [6]) was 30%. The “% Inhibition Average” value (various kinases [7]) was 26%, the “% Inhibition Duplicate #1” value (various kinases [7]) was 33% and the “% Inhibition Duplicate #2” value (various kinases [7]) was 18%. For the same molecule, the “% Inhibition Average” value (various kinases [8]) was 18%, the “% Inhibition Duplicate #1” value (various kinases [8]) was 21% and the “% Inhibition Duplicate #2” value (various kinases [8]) was 16%. The “% Inhibition Average” value (various kinases [9]) was -2%, the “% Inhibition Duplicate #1” value (various kinases [9]) was -2% and the “% Inhibition Duplicate #2” value (various kinases [9]) was -2%. The “% Inhibition” value (various kinases [10]) was 8% and 5%, the “% Inhibition” value (various kinases [11]) was -1% and 4% and the “% Inhibition Average” value (various kinases [12]) was 3%. The “% Inhibition Duplicate #1” value (various kinases [12]) was 4%, the “% Inhibition Duplicate #2” value (various kinases [12]) was 3% and the “% Inhibition” value (various kinases [13]) was 57% and 65%.
